According to article PMC11722533, “Discovery and mechanism of a highly selective, antifungal acetyl CoA synthetase inhibitor” (Research Square, 2025):

Tests used:
[1] = molecular target: T1, CnAcs1 (acetyl CoA synthetase) (Cryptococcus neoformans, UniProt J9VFT1); test: coupled pyrophosphate-release enzyme assay; assay type: biochemical
T1 construct: gene CNAG_00797; His-tagged recombinant CnAcs1 expressed in E. coli
T1 sequence (J9VFT1 1-680): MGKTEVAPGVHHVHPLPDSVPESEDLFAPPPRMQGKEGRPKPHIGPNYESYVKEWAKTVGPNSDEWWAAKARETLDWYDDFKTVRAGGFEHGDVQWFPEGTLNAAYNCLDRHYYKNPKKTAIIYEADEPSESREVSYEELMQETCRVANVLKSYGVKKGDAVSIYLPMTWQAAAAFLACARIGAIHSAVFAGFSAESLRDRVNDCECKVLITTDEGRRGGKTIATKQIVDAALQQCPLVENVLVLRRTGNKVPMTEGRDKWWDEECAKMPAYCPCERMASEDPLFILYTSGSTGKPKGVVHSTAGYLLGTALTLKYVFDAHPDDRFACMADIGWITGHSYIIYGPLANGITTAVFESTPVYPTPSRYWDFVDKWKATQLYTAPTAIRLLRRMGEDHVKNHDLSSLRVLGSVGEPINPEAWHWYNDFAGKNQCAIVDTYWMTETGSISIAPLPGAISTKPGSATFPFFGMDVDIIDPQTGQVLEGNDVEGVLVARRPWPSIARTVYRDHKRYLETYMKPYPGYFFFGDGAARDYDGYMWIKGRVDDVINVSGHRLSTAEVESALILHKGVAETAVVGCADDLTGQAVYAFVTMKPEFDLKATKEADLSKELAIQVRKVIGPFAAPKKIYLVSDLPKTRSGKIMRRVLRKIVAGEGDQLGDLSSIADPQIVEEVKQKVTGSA

[2] = molecular target: Cryptococcus neoformans Acs1 (acetyl CoA synthetase) (C. neoformans); test: mass photometry; single molecule, in solution, to low concentrations; with and without supra-inhibitory isoxazole 1 (apparent size unchanged)
[3] = molecular target: Cryptococcus neoformans Acs1 (acetyl CoA synthetase) (C. neoformans); test: crystal structure; co-crystal of CnAcs1 (10 mg/mL in 20 mM NaCl, 20 mM Tris pH 8.5, 1 mM TCEP) with 2 mM isoxazole 1; sitting drop vapor diffusion at 18 °C; PDB 9CD8
[4] = molecular target: T1, CnAcs1 (acetyl CoA synthetase); test: X-ray co-crystal structure; assay type: biochemical; conditions: cited from earlier work
Excerpt: X-ray co-crystal structure on CnAcs1 (acetyl CoA synthetase) | we obtained an X-ray crystal structure of CnAcs1 bound to the cyclopropyl-AMP ester

O=C(NNC(=O)c1csnn1)c1ccc(Cl)cc1 [MMV084978]
IC50 [1]: 2.8 µM

Cryptococcus neoformans Acs1 (acetyl CoA synthetase) (enzyme)
stoichiometry N [2]: 3 | stoichiometry N [3]: 3

Nc1ncnc2c1ncn2[C@@H]1O[C@H](COP(=O)(O)OC2CC2)[C@@H](O)[C@H]1O [cyclopropyl-AMP]
IC50 [4]: 9 µM
